Here are results for 8 compounds from patent US20120195857A1, “Hepatitis C Virus Inhibitors” (Bristol-Myers Squibb Company, priority 2010, published 2012).

This experiment concerns HCV 1b genotype. The experiment is described as follows: microbe, parasite or virus in culture. Type of experiment: cell-based. Conditions: Hepatitis C virus, HCV 1b genotype replicon. The method, then:
An HCV Replicon assay was utilized in the present disclosure, and was prepared, conducted and validated as described in commonly owned PCT/US2006/022197 and in O'Boyle et. al. Antimicrob Agents Chemother. 2005 April; 49(4):1346-53. Assay methods incorporating luciferase reporters have also been used as described (Apath.com).
HCV-neo replicon cells and replicon cells containing resistance substitutions in the NSSA region were used to test the currently described family of compounds. […] Ranges are as follows: A =0.5 pM to 10 pM; B=11 pM to 90 pM; C=91 pM to 160 pM; D=[…] to 5 nM.
Background: Replicon systems follow genome replication, usually without infectious particles.

Where [1] appears, read: read-out: EC50 (Effective 50% inhibitory concentration).

Read-outs that look alike come from different tables or passages of the source.

Regarding `COC(=O)N[C@H](C(=O)N1[C@@H](C)CC[C@H]1c1ncc(-c2ccc(-c3ccc(-c4cnc([C@@H]5CC[C@H](C)N5C(=O)[C@@H](NC(=O)OC)C5CCOCC5)[nH]4)c4nc[nH]c34)cc2)[nH]1)C1CCOCC1` [Example 14], the EC50 (read-out: EC50 Range) lay within 0.161 to 5 nM.

Consider `COC(=O)NC(C(=O)N1[C@@H]2C[C@@H]2C[C@H]1c1ncc(-c2ccc(-c3cc(-c4cnc([C@@H]5C[C@H]6C[C@H]6N5C(=O)[C@@H](NC(=O)OC)C(C)C)[nH]4)cc4c3CCC4)cc2)[nH]1)C(C)C` (some centres unmarked) [Example 5], for which the EC50 (read-out: EC50 Range) was in the range of 0.091 to 0.16 nM.

As for `COC(=O)N[C@H](C(=O)N1[C@@H]2C[C@@H]2C[C@H]1c1ncc(-c2ccc(-c3ccc(-c4cnc([C@@H]5C[C@H]6C[C@H]6N5C(=O)[C@@H](NC(=O)OC)C5CCOCC5)[nH]4)c4nc[nH]c34)cc2)[nH]1)C1CCOCC1` [Example 13], the EC50 runs as follows: under setting [1], 4.18 nM; (read-out: EC50 Range) 0.161 to 5 nM.

`COC(=O)N[C@H](C(=O)N1[C@@H](C)CC[C@H]1c1ncc(-c2ccc(-c3ccc(-c4coc([C@@H]5CC[C@H](C)N5C(=O)[C@@H](NC(=O)OC)C5CCOCC5)n4)c4c3CCC4)cc2)[nH]1)C1CCOCC1` [Example 7]: the EC50 is, setting by setting: under setting [1], 0.0942 nM; (read-out: EC50 Range) 0.091 to 0.16 nM.

Regarding `COC(=O)N[C@H](C(=O)N1CCC[C@H]1c1ncc(-c2ccc(-c3ccc(-c4cnc([C@@H]5CCCN5C(=O)[C@@H](NC(=O)OC)C5CCOCC5)[nH]4)c4ccccc34)cc2)[nH]1)C1CCOCC1` [Example 2], the EC50 (read-out: EC50 Range) lay in the range of 0.011 to 0.09 nM.

As to `COC(=O)N[C@H](C(=O)N1[C@@H]2C[C@@H]2C[C@H]1c1ncc(-c2ccc(-c3ccc(-c4cnc([C@@H]5C[C@H]6C[C@H]6N5C(=O)[C@@H](NC(=O)OC)C(C)C)[nH]4)c4nc[nH]c34)cc2)[nH]1)C(C)C` [Example 12], the EC50 is 0.0409 nM under setting [1] and 0.011 to 0.09 nM (read-out: EC50 Range).

As to `COC(=O)N[C@H](C(=O)N1[C@@H]2C[C@@H]2C[C@H]1c1nc(-c2ccc(-c3ccc(-c4ccc(-c5c[nH]c([C@@H]6C[C@H]7C[C@H]7N6C(=O)[C@@H](NC(=O)OC)C(C)C)n5)cc4)c4[nH]ccc34)cc2)c[nH]1)C(C)C` [Example 18], the EC50 under setting [1] turned out to be 0.00274 nM.

Consider `COC(=O)N[C@H](C(=O)N1[C@@H]2C[C@@H]2C[C@H]1c1ncc(-c2ccc(-c3ccc(-c4cnc([C@@H]5C[C@H]6C[C@H]6N5C(=O)[C@@H](NC(=O)OC)C5CCOCC5)[nH]4)c4c3CCC4)cc2)[nH]1)C1CCOCC1` [Example 4], for which the EC50 (read-out: EC50 Range) was in the range of 0.011 to 0.09 nM.
